Legend:
[1] = test system: human lung cancer cell strain A549; experiment: In vitro SRB tumor cell growth inhibition (GI50); type: cell-based; details: A549 cells, 48 h
Method: (§1) Human colon cancer cell strains (Colo205 and HCT-116), human breast cancer cell strains (MCF-7 and MDA-MB435), human lung cancer cell strains (A549, 95D and NCI460), human ovarian cancer cell strains (OVCAR-5, OVCAR-8, HO8910 and SKOV-3), human leukemia (HL-60 and K562), human prostate cancer (DU145 and BXPC-3), human uterine cancer (Hela), human pancreatic cancer (PANC-1), human hepatoma (HepG 2) were all obtained from ATCC. Colo205, HL-60, K562 cells were cultured in RPMI 1640 containing 2 mM/L glutamine, 10% FBS, 1.0 mM sodium pyruvate. HCT-116, MCF-7, A549, 95D, HO8910, NCI460, OVCAR-5, OVCAR-8, DU145, BXPC-3, Hela, PANC-1, HepG2 cells were cultured in DMEM containing 2 mM/L glutamine, 10% FBS. MDA-MB435 cells were cultured in L-15 containing 2 mM/L glutamine, 10% FBS. SKOV-3 cells were cultured in McCoy's containing 2 mM/L glutamine, 10% FBS. Colo205, HL-60 and K562 cells were seeded in 96-well plates, 150 μL/well and 8000 cells/well, and the 96-well plates were pre-incubated in an incubator at 37° C. with 5% CO2, 100% relative humidity for 24 hours. HCT-116, MCF-7, NCI460, OVCAR-5, OVCAR-8, Hela, HepG 2 and MDA-MB435 cells were seeded in 96-well plates, 5000 cells/well; A549, 95D, HO8910, DU145, BXPC-3, PANC-1 and SKOV-3 cells were seeded in 96-well plates, 10000 cells/well, and the 96-well plates were pre-incubated in an incubator at 37° C. with 5% CO2, 100% relative humidity for 24 hours, to allow the cells to adhere.
(§2) 50 μL of pre-cooled 50% (mass/volume) TCA was added into the time zero control wells for each cell strain to fix the cells. To other wells, 50 μL of various concentrations of compounds were added, and maintained for 48 h, wherein each drug concentration was in triplicate, and there were blank control wells (cell culture medium without cells), drug-free control wells (with no drugs but the same volume of complete medium) and positive drug BSI-201 control wells, and the plates were incubated in an incubator at 37° C. with 5% CO2, full humidity (100% relative humidity) for 48 hours
(§3) 50 μL pre-cooled 50% (mass/volume) TCA was added onto the surface of the culture medium to fix the cells, which was then placed at 4° C. for 1 h. The supernatant was removed and each well was washed with deionized water for 5 times to remove TCA, serum proteins, etc. After dried in the air, about 100 μL enough amount of 0.4% SRB (formulated with 1% acetic acid) was added into each well, and was placed at room temperature for 20 to 30 min. Liquid in each well was discarded and each well was rapidly washed with 1% acetic acid for five times, to remove unbound dye until the unbound dye was completely rinsed clean. After dried in the air until the moisture was invisible, each well was added 200 μL Tris base to dissolve, shaken on a plate oscillator for 5 min or mixed by beating up and down with a pipette tip, and then measured on the multi-function instruction (M5 Detection System, MD Group Ltd.) with a detection wavelength of 515 nm, zero adjusted with 690 nm blank control.
(§4) The dose-response curve was plotted by XL-fit to determine the GI50 value.

[2] = test system: human hepatoma HepG 2; experiment: In vitro SRB tumor cell growth inhibition (GI50); type: cell-based; details: HepG2, HepG 2 cells, 48 h
Method: as §1, §2, §3, §4

[3] = test system: human ovarian cancer cell strain OVCAR-8; experiment: In vitro SRB tumor cell growth inhibition (GI50); type: cell-based; details: Homo sapiens, OVCAR-8, 48 h, OVCAR-8 cells
Method: as §1, §2, §3, §4

[4] = test system: human breast cancer cell strain MDA-MB435; experiment: In vitro SRB tumor cell growth inhibition (GI50); type: cell-based; details: Homo sapiens, MDA-MB-435, 48 h, MDA-MB435 cells
Method: as §1, §2, §3, §4

[5] = test system: human breast cancer cell strain MCF-7; experiment: In vitro SRB tumor cell growth inhibition (GI50); type: cell-based; details: Homo sapiens, MCF7, 48 h, MCF-7 cells
Method: as §1, §2, §3, §4

[6] = test system: human leukemia HL-60; experiment: In vitro SRB tumor cell growth inhibition (GI50); type: cell-based; details: Homo sapiens, HL-60, 48 h, HL-60 cells
Method: as §1, §2, §3, §4

[7] = test system: human lung cancer cell strain NCI-460; experiment: In vitro SRB tumor cell growth inhibition (GI50); type: cell-based; details: Homo sapiens, NCI-460, 48 h, NCI-460 cells
Method: as §1, §2, §3, §4

[8] = test system: human ovarian cancer cell strain OVCAR-5; experiment: In vitro SRB tumor cell growth inhibition (GI50); type: cell-based; details: OVCAR-5 cells, 48 h
Method: as §1, §2, §3, §4

[9] = test system: human leukemia K562; experiment: In vitro SRB tumor cell growth inhibition (GI50); type: cell-based; details: Homo sapiens, K562, 48 h, K562 cells
Method: as §1, §2, §3, §4

[10] = test system: human colon cancer cell strain Colo205; experiment: In vitro SRB tumor cell growth inhibition (GI50); type: cell-based; details: Colo 205 cells, 48 h
Method: as §1, §2, §3, §4

[11] = test system: human uterine cancer Hela; experiment: In vitro SRB tumor cell growth inhibition (GI50); type: cell-based; details: Homo sapiens, HeLa, 48 h, Hela cells
Method: as §1, §2, §3, §4

[12] = test system: human ovarian cancer cell strain HO8910; experiment: In vitro SRB tumor cell growth inhibition (GI50); type: cell-based; details: HO-8910, HO8910 cells, 48 h
Method: as §1, §2, §3, §4

[13] = test system: human colon cancer cell strain HCT-116; experiment: In vitro SRB tumor cell growth inhibition (GI50); type: cell-based; details: Homo sapiens, HCT-116, 48 h, HCT-116 cells
Method: as §1, §2, §3, §4

[14] = test system: human prostate cancer BXPC-3; experiment: In vitro SRB tumor cell growth inhibition (GI50); type: cell-based; details: BXPC-3 cells, 48 h
Method: as §1, §2, §3, §4

[15] = test system: human prostate cancer DU145; experiment: In vitro SRB tumor cell growth inhibition (GI50); type: cell-based; details: Homo sapiens, DU-145, 48 h, DU145 cells
Method: as §1, §2, §3, §4

[16] = test system: human ovarian cancer cell strain SKOV-3; experiment: In vitro SRB tumor cell growth inhibition (GI50); type: cell-based; details: SK-OV-3, SKOV-3 cells, 48 h
Method: as §1, §2, §3, §4

[17] = test system: human lung cancer cell strain 95D; experiment: In vitro SRB tumor cell growth inhibition (GI50); type: cell-based; details: Homo sapiens, 95-D, 48 h, 95D cells
Method: as §1, §2, §3, §4

[18] = test system: human pancreatic cancer PANC-1; experiment: In vitro SRB tumor cell growth inhibition (GI50); type: cell-based; details: Homo sapiens, PANC-1, 48 h, PANC-1 cells
Method: as §1, §2, §3, §4

[19] = test system: 18 tumor cell strains; experiment: In vitro efficacy screening, summary over the tumor cell strains; type: cell-based, human; details: in vitro screening; for inhibitory effects on tumor cell proliferation (in words): BSI-201 as positive drug
Method: as §1, §2, §3, §4

GI50 [1] | GI50 [2] | GI50 [3] | GI50 [4] | GI50 [5] | GI50 [6] | GI50 [8] | GI50 [9] | GI50 [10] | GI50 [11] | GI50 [12] | GI50 [13] | GI50 [14] | GI50 [15] | GI50 [16] | GI50 [17] | GI50 [18] | Structure (SMILES) | GI50 [7] | efficacy in inhibition of tumor cell proliferation, graded in words against I-1 [19] | inhibitory effects on tumor cell proliferation (in words) [19]
17.9 µM | 16 µM | 1.64 µM | 5.86 µM | 16.1 µM | 2.87 µM | 17.5 µM | 1.77 µM | 1.52 µM | 4.17 µM | 4.34 µM | 8.44 µM | 3.91 µM | 2.24 µM | 22.5 µM | 14.5 µM | 12.5 µM | C#Cc1ccc(C(=O)N2CCCCC2)cc1[N+](=O)[O-] [Compound I-21, (4-ethynyl-3-nitrophenyl)(piperidin-1-yl)ketone] | 5.86 µM | slightly lower than that of I-1 | have inhibitory effects on tumor cell proliferation
12.2 µM | 5.85 µM | 4.6 µM | 2.76 µM | 10.6 µM | 2.62 µM | 16.1 µM | 2.59 µM | 3.21 µM | 4.43 µM | 3.34 µM | 5.06 µM | 4.79 µM | 2.99 µM | 8.4 µM | 10.3 µM | 12.4 µM | C#Cc1ccc(C(=O)NCC)cc1[N+](=O)[O-] [Compound I-17, N-ethyl-4-ethynyl-3-nitrobenzamide] | 14 µM | slightly lower than that of I-1 | have inhibitory effects on tumor cell proliferation
17.6 µM | 4.27 µM | 3.64 µM | 1.01 µM | 20.1 µM | 1.99 µM | 20.9 µM | 4.52 µM | 2.79 µM | 6.7 µM | 5 µM | 11.2 µM | 4.9 µM | 4.17 µM | 10.3 µM | 16.8 µM | 19.9 µM | C#Cc1ccc(C(=O)N(CC)CC)cc1[N+](=O)[O-] [Compound I-14, N,N-diethyl-4-ethynyl-3-nitrobenzamide] | 20.9 µM | slightly lower than that of I-1 | have inhibitory effects on tumor cell proliferation
